Measured values published in patent US9510598B2, “Nitrogen-containing heterocyclic compounds for plant disease control” (BAYER CROPSCIENCE AG, priority 2012, dated 2016).

type: physicochemical; conditions: HPLC on reversed phase columns, method [a]: pH 2.7, 0.1% formic acid in water / acetonitrile, linear gradient 10% to 95% acetonitrile

| SMILES | log P |
| --- | --- |
| COCC#CC(C)(C)NC(=O)C1(C)CC(c2ccc3ncc(Br)cc3c2)=NO1 (centres unmarked) [compound 299] | 3.19[a] |
| C#Cc1cnc2c(C)cc(C3=NOC(C)(C(=O)NC4CCC4)C3)cc2c1 (centres unmarked) [compound 578] | 3.25[a] |
| CC(C)NC(=O)C12CCCC1C(c1ccc3ncc(Br)cc3c1)=NO2 (centres unmarked) [compound 255] | 3.19^[a] |
| CCn1cc(CNC(=O)C2(C)CC(c3ccc4nc(C#N)c(Br)cc4c3)=NO2)c(C)n1 (centres unmarked) [compound 302] | 2.57[a] |
| O=C(NC1CC1)C1(C2CC2)CC(c2ccc3ncc(Br)cc3c2)=NO1 (centres unmarked) [compound 269] | 2.88[a] |
| CC1(C)OCC(CNC(=O)C2(C(F)F)CC(c3ccc4ncc(Br)cc4c3)=NO2)O1 (centres unmarked) [compound 622] | 2.96[a] |
| CC1(C(=O)NCc2cnn(CC(F)F)c2)CC(c2ccc3ncc(Br)cc3c2)=NO1 (centres unmarked) [compound 646] | 2.42[a] |
| C#Cc1cnc2ccc(C3=NOC(C)(C(=O)NCc4ccc(OC)cn4)C3)cc2c1 (centres unmarked) [compound 631] | 1.96[a] |
| CCn1cc(CNC(=O)C2(C)CC(c3ccc4nc(OC)c(Br)cc4c3)=NO2)c(C)n1 (centres unmarked) [compound 263] | 2.96^[a] |
| CCn1cc(CNC(=O)C2(C)CC(c3ccc4ncc(C#N)cc4c3)=NO2)c(C)n1 (centres unmarked) [compound 288] | 1.80[a] |
| CC(C)CC(C)NC(=O)C1(C)CC(c2ccc3ncc(Br)cc3c2)=NO1 (centres unmarked) [compound 321] | 3.80[a] |
| CC1CCCC1(C#N)NC(=O)C1(C)CC(c2ccc3ncc(Br)cc3c2)=NO1 (centres unmarked) [compound 313] | 3.27[a] |
| CC(C)CCC(C)NC(=O)C1(C)CC(c2ccc3ncc(Br)cc3c2)=NO1 (centres unmarked) [compound 328] | 4.21[a] |
| C#Cc1cnc2c(C)cc(C3=NOC(OC)(C(=O)NCc4cn(CC)nc4C)C3)cc2c1 (centres unmarked) [compound 609] | 2.62[a] |
| C#Cc1cnc2ccc(C3=NOC(C)(C(=O)NC(C)(C)C(C)C)C3)cc2c1 (centres unmarked) [compound 320] | 3.71[a] |
| C#Cc1cnc2ccc(C3=NOC(C)(C(=O)NCc4cn(C5CCCC5)nc4C)C3)cc2c1 (centres unmarked) [compound 629] | 2.71[a] |
| CCCCn1cc(CNC(=O)C2(C)CC(c3ccc4ncc(Br)cc4c3)=NO2)c(C)n1 (centres unmarked) [compound 657] | 2.96[a] |
| CC1(C(=O)NC2CCCCC2)CC(c2ccc3ncc(Br)cc3c2)=NO1 (centres unmarked) [compound 239] | 3.63^[a] |
| C#Cc1cnc2c(Cl)cc(C3=NOC(OC)(C(=O)NCc4cn(CC)nc4C)C3)cc2c1 (centres unmarked) [compound 587] | 2.53[a] |
| CCSc1cnc2ccc(C3=NOC(C)(C(=O)NCc4cn(CC)nc4C)C3)cc2c1 (centres unmarked) [compound 276] | 2.39[a] |
| C#Cc1cnc2c(C)cc(C3=NOC(OC)(C(=O)NC4CCC4)C3)cc2c1 (centres unmarked) [compound 612] | 3.15[a] |
| C#Cc1cnc2c(Cl)cc(C3=NOC(OC)(C(=O)NCC4COC(C)(C)O4)C3)cc2c1 (centres unmarked) [compound 589] | 2.82[a] |
| C#Cc1cnc2ccc(C3=NOC(C)(C(=O)NCC[Si](C)(C)C)C3)cc2c1 (centres unmarked) [compound 231] | 3.7^[a] |
| C#Cc1cnc2ccc(C3=NOC(C)(C(=O)NCC(F)F)C3)cc2c1 (centres unmarked) [compound 652] | 2.26[a] |
| CN1C(C)(C)CC(NC(=O)C2(C)CC(c3ccc4ncc(Br)cc4c3)=NO2)CC1(C)C (centres unmarked) [compound 240] | 1.47^[a] |
| CC(NC(=O)C1(C)CC(c2ccc3ncc(Br)cc3c2)=NO1)c1nn(C)c(=O)n1C (centres unmarked) [compound 327] | 1.99[a] |
| C=C(C)C1(C(=O)NCc2cn(CC)nc2C)CC(c2ccc3ncc(Br)cc3c2)=NO1 (centres unmarked) [compound 526] | 2.91[a] |

Results, then the compound that gave them:

| log P | SMILES |
| --- | --- |
| 2.26[a] | C#Cc1cnc2ccc(C3=NOC(C)(C(=O)NCc4ccnc(OC)c4)C3)cc2c1 (centres unmarked) [compound 674] |
| 2.13[a] | CC1(C(=O)NCc2ncccn2)CC(c2ccc3ncc(Br)cc3c2)=NO1 (centres unmarked) [compound 661] |
| 2.82[a] | COc1ncccc1CNC(=O)C1(C)CC(c2ccc3ncc(Br)cc3c2)=NO1 (centres unmarked) [compound 678] |

same assay, conditions: HPLC on reversed phase columns, method [a]: pH 2.7, 0.1% formic acid in water and acetonitrile, linear gradient 10% to 95% acetonitrile

| SMILES | log P |
| --- | --- |
| CCn1cc(CNC(=O)C2(C#N)CC(c3ccc4ncc(Br)cc4c3)=NO2)c(C)n1 (centres unmarked) [compound 709] | 2.51[a] |
| CC(C)c1cccc(CNC(=O)C2(C)CC(c3ccc4ncc(Br)cc4c3)=NO2)n1 (centres unmarked) [compound 686] | 2.33[a] |
| CC1(C(=O)NC(C2CC2)C2CC2)CC(c2ccc3ncc(Br)cc3c2)=NO1 (centres unmarked) [compound 773] | 3.57[a] |
| CC(C)NC(=O)C1(C)CC(c2ccc3ncc(Br)c(Cl)c3c2)=NO1 (centres unmarked) [compound 736] | 2.39[a] |
| C#Cc1cnc2ccc(C3=NOC(C)(C(=O)NCc4ccncc4F)C3)cc2c1 (centres unmarked) [compound 804] | 2.02[a] |
| CCC(C#N)NC(=O)C1(C)CC(c2ccc3ncc(Br)cc3c2)=NO1 (centres unmarked) [compound 721] | 2.75[a] |
| CC1(C(=O)NCc2cnc(Cl)cn2)CC(c2ccc3ncc(Br)cc3c2)=NO1 (centres unmarked) [compound 790] | 2.73[a] |
| COC1(C(=O)NCCC2CCOC2)CC(c2ccc3ncc(Br)cc3c2)=NO1 (racemic) [compound 823] | 2.27[a] |
| C#Cc1cnc2ccc(C3=NOC(C)(C(=O)NCc4ccnc(N(C)C)c4)C3)cc2c1 (centres unmarked) [compound 800] | 1.36[a] |
| CCc1ccnc(CNC(=O)C2(C)CC(c3ccc4ncc(Br)cc4c3)=NO2)c1 (centres unmarked) [compound 752] | 1.82[a] |
| COC1(C(=O)NCCC2CC2)CC(c2ccc3ncc(Br)cc3c2)=NO1 (racemic) [compound 822] | 3.03[a] |
| C#Cc1cnc2ccc(C3=NOC(C)(C(=O)NCc4cccnc4C#N)C3)cc2c1 (centres unmarked) [compound 812] | 1.70[a] |
| CC(C)NC(=O)C1(C#N)CC(c2ccc3ncc(Br)cc3c2)=NO1 (centres unmarked) [compound 737] | 2.86[a] |
| C#Cc1cnc2ccc(C3=NOC(C)(C(=O)NC(C4CC4)C4CC4)C3)cc2c1 (centres unmarked) [compound 768] | 3.21[a] |
| C#Cc1cnc2ccc(C3=NOC(C)(C(=O)N4CCOCC4)C3)cc2c1 (centres unmarked) [compound 774] | 2.18[a] |
| CC1(CNC(=O)C2(C)CC(c3ccc4ncc(Br)cc4c3)=NO2)CCC1 (centres unmarked) [compound 757] | 3.65[a] |
| C#Cc1cnc2ccc(C3=NOC(C)(C(=O)NCc4ccc(CC)cn4)C3)cc2c1 (centres unmarked) [compound 747] | 1.82[a] |
| C#Cc1cnc2ccc(C3=NOC(C)(C(=O)NCc4ccnc(OC(C)C)c4)C3)cc2c1 (centres unmarked) [compound 764] | 2.71[a] |
| CC1(C(=O)NCc2cncc(C#N)c2)CC(c2ccc3ncc(Br)cc3c2)=NO1 (centres unmarked) [compound 782] | 2.35[a] |
| Cc1cc(CNC(=O)C2(C)CC(c3ccc4ncc(Br)cc4c3)=NO2)ccn1 (centres unmarked) [compound 684] | 1.40[a] |

same assay, conditions: method [a]: HPLC/LC-MS on reversed phase at pH 2.7, 0.1% formic acid in water / acetonitrile, gradient 10% to 95% acetonitrile

| SMILES | log P |
| --- | --- |
| CC(C)NC(=O)C1(C)CC(c2ccc3nc(C#N)c(I)cc3c2)=NO1 (centres unmarked) [compound 510] | 3.04[a] |
| CC(C)(C)ONC(=O)C1(C)CC(c2ccc3ncc(Br)cc3c2)=NO1 (racemic) [compound 373] | 2.66[a] |
| C#Cc1cnc2ccc(C3=NOC(C)(C(=O)NCCCN(C)C)C3)cc2c1 (racemic) [compound 363] | 1.11[a] |
| CC(C)NC(=O)C1(C)CC(c2ccc3nc(Cl)c(I)cc3c2)=NO1 (centres unmarked) [compound 486] | 3.50[a] |
| O=C(NC1CC1)C12CC1C(c1ccc3ncc(Br)cc3c1)=NO2 (racemic) [compound 398] | 2.50[a] |
| CC(C)NC(=O)C1(C)CC(c2ccc3ncc(NC(=O)OC(C)(C)C)cc3c2)=NO1 (racemic) [compound 430] | 2.77[a] |
| CN(CC(NC(=O)C1(C)CC(c2ccc3ncc(Br)cc3c2)=NO1)C1CC1)c1ccccc1 (centres unmarked) [compound 362] | 4.19[a] |
| CCC1(C(=O)NCC2COC(C)(C)O2)CC(c2ccc3ncc(Br)cc3c2)=NO1 (centres unmarked) [compound 499] | 2.99[a] |
| CC1(C(=O)NCc2ccsc2)CC(c2ccc3ncc(Br)cc3c2)=NO1 (centres unmarked) [compound 479] | 3.07[a] |
| CC1(C(=O)NC(CN2CCCC2)C2CC2)CC(c2ccc3ncc(Br)cc3c2)=NO1 (centres unmarked) [compound 364] | 1.53[a] |
| C#Cc1cc2cc(C3=NOC(C)(C(=O)NC(C)C)C3)ccc2nc1C#N (centres unmarked) [compound 404] | 2.77[a] |

same assay, conditions: method [a]: HPLC/LC-MS on reversed phase at pH 2.7, 0.1% formic acid in water / acetonitrile, linear gradient 10% to 95% acetonitrile

| SMILES | log P |
| --- | --- |
| CC1(C(=O)NCc2cnn(-c3ccccc3)n2)CC(c2ccc3ncc(Br)cc3c2)=NO1 (centres unmarked) [compound 96] | 3.5^[a] |
| CCC(C)NC(=O)C1(C)CC(c2cc3cc(Br)cnc3c(F)c2OC)=NO1 (centres unmarked) [compound 27] | 3.29^[a] |
| C#Cc1cnc2ccc(C3=NOC(C)(C(=O)NC4CC(C)(C)N(C)C(C)(C)C4)C3)cc2c1 (centres unmarked) [compound 217] | 1.34^[a] |
| C#Cc1cnc2ccc(C3=NOC(C)(C(=O)NC4(C#C)CCCCC4)C3)cc2c1 (centres unmarked) [compound 218] | 3.48^[a] |
| CC1(C(=O)NCc2cccs2)CC(c2ccc3ncc(Br)cc3c2)=NO1 (centres unmarked) [compound 89] | 3.06^[a] |
| C#Cc1cnc2ccc(C3=NOC(C)(C(=O)NCc4ccc(Oc5ccccc5)cc4)C3)cc2c1 (centres unmarked) [compound 175] | 3.8^[a] |
| CC(C)NC(=O)C1(c2ccccc2)CC(c2ccc3ncc(Br)cc3c2)=NO1 (centres unmarked) [compound 136] | 3.78^[a] |
| CC1(C(=O)NCc2cccc3ccccc23)CC(c2ccc3ncc(Br)cc3c2)=NO1 (centres unmarked) [compound 224] | 3.85^[a] |
| CC1(C(=O)NCc2cccc(Cl)c2Cl)CC(c2ccc3ncc(Br)cc3c2)=NO1 (centres unmarked) [compound 174] | 4.01^[a] |
| CC(C)NC(=O)C1(CCl)CC(c2ccc3ncc(Br)cc3c2)=NO1 (centres unmarked) [compound 139] | 3.01^[a] |

same assay, conditions: method [a]: HPLC/LC-MS on reversed phase at pH 2.7, 0.1% formic acid in water and acetonitrile, linear gradient 10% to 95% acetonitrile

| SMILES | Log P |
| --- | --- |
| CCOCCCNC(=O)C1(C(F)(F)F)CC(c2cc3cc(Br)cnc3c(F)c2F)=NO1 (centres unmarked) [compound 16] | 3.71^[a] |

same assay, conditions: reversed phase HPLC column; HPLC reversed phase, pH 2.7, 0.1% formic acid in water / acetonitrile, linear gradient 10% to 95% acetonitrile; calibration with alkan-2-ones; read-out: log P (HCOOH)

| SMILES | chromatographic logP |
| --- | --- |
| O/N=C/c1ccc2ncc(I)cc2c1 [1-(3-iodoquinolin-6-yl)-N-hydroxymethanimine] | 1.98 |
| O/N=C/c1ccc2ncc(Cl)cc2c1 [1-(3-chloroquinolin-6-yl)-N-hydroxymethanimine] | 1.78 |
